Reference: patent publication US10974081B2, “Treatment and prevention of sleep disorders” (Purdue Pharma L.P., priority 2016, dated 2021)
Where “and” joins values, the source holds several entries; their conditions need not be identical. Identical values can stand only once.

Tests used:
[1] = system: subjects with insomnia disorder; experiment: Phase 1 crossover polysomnography (PSG) study in subjects with insomnia disorder; type: in vivo, human
[2] = system: rats; experiment: EEG/EMG sleep-wake analysis, single administration compared to zolpidem; type: in vivo, rat
[3] = Change from Baseline, 10 mg oral
[4] = Compound (1D) versus placebo, 10 mg oral
[5] = Treatment Period 1 Night 1, 10 mg oral
[6] = Treatment Period 1 Night 2, 10 mg oral
[7] = Treatment Period 2 Night 1, 10 mg oral
[8] = Treatment Period 2 Night 2, 10 mg oral
[9] = Treatment Period Mean, 10 mg oral

O=C(O)c1nc2ccccc2n([C@H]2C[C@H]3CCC[C@@H](C2)N3C2CC3CCCC(C3)C2)c1=O (stereo partly drawn) [Compound (1D)]
Latency to Persistent Sleep (LPS) LSM (STDE) [1, 3]: −32.33 (4.580) Minutes
Latency to Persistent Sleep (LPS) Maximum [1, 3]: 8.75 min
Latency to Persistent Sleep (LPS) Mean (SD) [1, 3]: −29.918 (23.3435) Minutes
Latency to Persistent Sleep (LPS) Median [1, 3]: -27.250 min
Latency to Persistent Sleep (LPS) Minimum [1, 3]: -87.75 min
Total Sleep Time (TST) LSM (STDE) [1, 3]: 69.44 (12.870) Minutes
Total Sleep Time (TST) Maximum [1, 3]: 198.00 min
Total Sleep Time (TST) Mean (SD) [1, 3]: 69.955 (49.2950) Minutes
Total Sleep Time (TST) Median [1, 3]: 73.750 min
Total Sleep Time (TST) Minimum [1, 3]: -59.80 min
Wake After Sleep Onset (WASO) LSM (STDE) [1, 3]: −50.04 (5.990) Minutes
Wake After Sleep Onset (WASO) Maximum [1, 3]: 29.50 min
Wake After Sleep Onset (WASO) Mean (SD) [1, 3]: −50.545 (42.1544) Minutes
Wake After Sleep Onset (WASO) Median [1, 3]: -47.250 min
Wake After Sleep Onset (WASO) Minimum [1, 3]: -185.50 min
Latency to Persistent Sleep (LPS) Drug Effect Difference (LSM (STDE)) [1, 4]: −17.44 (6.292) Minutes
Total Sleep Time (TST) Drug Effect Difference (LSM (STDE)) [1, 4]: 56.69 (17.665) Minutes
Wake After Sleep Onset (WASO) Drug Effect Difference (LSM (STDE)) [1, 4]: −38.46 (8.222) Minutes
Latency to Persistent Sleep LSM Change from Baseline (STDE) ([1]; Table 4 summary, 10 mg oral): −32.3 (4.6) min.
Latency to Persistent Sleep Treatment Period Mean (SD) ([1]; Table 4 summary, 10 mg oral): 18.8 (15.6)) min.
Latency to Persistent Sleep LSM Effect Difference (STDE) ([1]; Table 4 summary, versus placebo, 10 mg oral): −17.4 (6.3) min.
Wake After Sleep Onset LSM Change from Baseline (STDE) ([1]; Table 6 summary, 10 mg oral): −50.0 (6.0) min.
Wake After Sleep Onset Treatment Period Mean (SD) ([1]; Table 6 summary, 10 mg oral): 26.1 (16.2) min.
Wake After Sleep Onset LSM Effect Difference (STDE) ([1]; Table 6 summary, versus placebo, 10 mg oral): −38.5 (8.2) min.
Total Sleep Time LSM Change from Baseline (STDE) ([1]; Table 8 summary, 10 mg oral): 69.4 (12.9) min.
Total Sleep Time Treatment Period Mean (SD) ([1]; Table 8 summary, 10 mg oral): 432.0 (35.1) min.
Total Sleep Time LSM Effect Difference (STDE) ([1]; Table 8 summary, versus placebo, 10 mg oral): 56.7 min. and 56.7 (17.7) min.
Latency to Persistent Sleep (LPS) Maximum [1, 5]: 58.0 min
Latency to Persistent Sleep (LPS) Mean (SD) [1, 5]: 25.68 (15.691) Minutes
Latency to Persistent Sleep (LPS) Median [1, 5]: 24.50 min
Latency to Persistent Sleep (LPS) Minimum [1, 5]: 6.0 min
Total Sleep Time (TST) Maximum [1, 5]: 469.0 min
Total Sleep Time (TST) Mean (SD) [1, 5]: 424.00 (32.530) Minutes
Total Sleep Time (TST) Median [1, 5]: 419.50 min
Total Sleep Time (TST) Minimum [1, 5]: 358.5 min
Wake After Sleep Onset (WASO) Maximum [1, 5]: 111.5 min
Wake After Sleep Onset (WASO) Mean (SD) [1, 5]: 35.95 (29.815) Minutes
Wake After Sleep Onset (WASO) Median [1, 5]: 29.50 min
Wake After Sleep Onset (WASO) Minimum [1, 5]: 7.5 min
Latency to Persistent Sleep (LPS) Maximum [1, 6]: 105.0 min
Latency to Persistent Sleep (LPS) Mean (SD) [1, 6]: 20.73 (29.755) Minutes
Latency to Persistent Sleep (LPS) Median [1, 6]: 15.00 min
Latency to Persistent Sleep (LPS) Minimum [1, 6]: 0.0 min
Total Sleep Time (TST) Maximum [1, 6]: 459.0 min
Total Sleep Time (TST) Mean (SD) [1, 6]: 439.82 (19.572) Minutes
Total Sleep Time (TST) Median [1, 6]: 443.00 min
Total Sleep Time (TST) Minimum [1, 6]: 387.5 min
Wake After Sleep Onset (WASO) Maximum [1, 6]: 52.0 min
Wake After Sleep Onset (WASO) Mean (SD) [1, 6]: 25.68 (12.515) Minutes
Wake After Sleep Onset (WASO) Median [1, 6]: 25.50 min
Wake After Sleep Onset (WASO) Minimum [1, 6]: 4.0 min
Latency to Persistent Sleep (LPS) Maximum [1, 7]: 46.0 min
Latency to Persistent Sleep (LPS) Mean (SD) [1, 7]: 12.75 (14.425) Minutes
Latency to Persistent Sleep (LPS) Median [1, 7]: 9.00 min
Latency to Persistent Sleep (LPS) Minimum [1, 7]: 0.0 min
Total Sleep Time (TST) Maximum [1, 7]: 458.5 min
Total Sleep Time (TST) Mean (SD) [1, 7]: 416.88 (101.558) Minutes
Total Sleep Time (TST) Median [1, 7]: 453.00 min
Total Sleep Time (TST) Minimum [1, 7]: 166.0 min
Wake After Sleep Onset (WASO) Maximum [1, 7]: 22.5 min
Wake After Sleep Onset (WASO) Mean (SD) [1, 7]: 15.63 (4.299) Minutes
Wake After Sleep Onset (WASO) Median [1, 7]: 15.75 min
Wake After Sleep Onset (WASO) Minimum [1, 7]: 9.5 min
Latency to Persistent Sleep (LPS) Maximum [1, 8]: 29.5 min
Latency to Persistent Sleep (LPS) Mean (SD) [1, 8]: 12.50 (9.350) Minutes
Latency to Persistent Sleep (LPS) Median [1, 8]: 11.50 min
Latency to Persistent Sleep (LPS) Minimum [1, 8]: 0.5 min
Total Sleep Time (TST) Maximum [1, 8]: 459.5 min
Total Sleep Time (TST) Mean (SD) [1, 8]: 447.50 (8.594) Minutes
Total Sleep Time (TST) Median [1, 8]: 450.25 min
Total Sleep Time (TST) Minimum [1, 8]: 436.0 min
Wake After Sleep Onset (WASO) Maximum [1, 8]: 38.5 min
Wake After Sleep Onset (WASO) Mean (SD) [1, 8]: 23.44 (8.946) Minutes
Wake After Sleep Onset (WASO) Median [1, 8]: 22.75 min
Wake After Sleep Onset (WASO) Minimum [1, 8]: 12.5 min
Latency to Persistent Sleep (LPS) LSM (STDE) [1, 9]: 18.14 (4.579) Minutes
Latency to Persistent Sleep (LPS) Maximum [1, 9]: 70.25 min
Latency to Persistent Sleep (LPS) Mean (SD) [1, 9]: 18.750 (15.6310) Minutes
Latency to Persistent Sleep (LPS) Median [1, 9]: 15.000 min
Latency to Persistent Sleep (LPS) Minimum [1, 9]: 2.00 min
Total Sleep Time (TST) LSM (STDE) [1, 9]: 431.09 (12.869) Minutes
Total Sleep Time (TST) Maximum [1, 9]: 464.00 min
Total Sleep Time (TST) Mean (SD) [1, 9]: 432.026 (35.1088) Minutes
Total Sleep Time (TST) Median [1, 9]: 443.500 min
Total Sleep Time (TST) Minimum [1, 9]: 309.00 min
Wake After Sleep Onset (WASO) LSM (STDE) [1, 9]: 25.28 (5.990) Minutes
Wake After Sleep Onset (WASO) Maximum [1, 9]: 51.75 min
Wake After Sleep Onset (WASO) Mean (SD) [1, 9]: 26.066 (16.2181) Minutes
Wake After Sleep Onset (WASO) Median [1, 9]: 22.250 min
Wake After Sleep Onset (WASO) Minimum [1, 9]: 11.00 min
Latency to Persistent Sleep LSM decrease effect ([1]; treatment group versus placebo): 17.4 min
Wake After Sleep Onset LSM decrease effect ([1]; treatment group versus placebo): 38.5 min
effect on percentage of time spent in REM sleep ([2]; 10 mg/kg oral (FIG. 13B)): no significant effects
percentage of time spent in wakefulness versus vehicle ([2]; 10 mg/kg oral, 1 hour blocks at 2, 5, and 8 hours after dosing (FIG. 13A)): lower
percentage amounts of wakefulness, REM sleep, and NREM sleep ([2]; 10 mg/kg oral, 3 hour blocks (FIGS. 14A-14C)): no significant changes
percentage of time spent in NREM sleep versus vehicle ([2]; 10 mg/kg oral, at 2, 5, and 8 hours after dosing (FIG. 13C)): higher
percentage of time spent in wakefulness versus vehicle ([2]; 10 mg/kg oral, at 6 and 15 hours after dosing (FIG. 13A)): significantly increased
percentage of time spent in NREM sleep versus vehicle ([2]; 10 mg/kg oral, at 6 and 15 hours after dosing (FIG. 13C)): significantly decreased
effect on percentage of time spent in REM sleep ([2]; 100 mg/kg oral (FIG. 15B, 16B)): no significant effects
percentage amount of NREM sleep versus vehicle ([2]; 100 mg/kg oral, 3 hour blocks 0-3, 3-6, 6-9, and 15-18 hours (FIG. 16C)): significant decreases
percentage amount of wakefulness versus vehicle ([2]; 100 mg/kg oral, 3 hour blocks 0-3, 3-6, and 15-18 hours (FIG. 16A)): significant increases
percentage of time spent in NREM sleep versus vehicle ([2]; 100 mg/kg oral, at 3, 4, 5, 7, 17 and 18 hours after dosing (FIG. 15C)): significantly increased
percentage of time spent in wakefulness versus vehicle ([2]; 100 mg/kg oral, at 3, 5 and 17 hours after dosing (FIG. 15A)): significantly decreased
overall sleep effect ([2]; single 10 mg/kg oral dose): minor sleep-enhancing effects
overall sleep effect ([2]; single 100 mg/kg oral dose): significant sleep-enhancing effects
